Reference: patent publication US20260224589A1 (priority 2023, published 2026)
Where two headings read alike, the source gives them in different places.

System: AsPC-1 cells
Assay: phospho-ERK HTRF assay in AsPC-1 cells, 4 h treatment
Assay type: cell-based
[1] = Homo sapiens, ASPC1, AsPC-1, 4h, Table 1b, read-out: PERK IC50 (AsPC-1, 4h)
[2] = Homo sapiens, ASPC1, AsPC-1, 4H, Table 1a class column, read-out: pERK IC50 activity range (*)
[3] = Homo sapiens, ASPC1, AsPC-1, 4H, Table 1a, read-out: PERK IC50 (AsPC-1, 4H)

| Structure (SMILES) | IC50 [2] [nM] | IC50 [3] [nM] | other results |
| --- | --- | --- | --- |
| CN(C)C(=O)c1nn2c(c1Cl)CN(c1nc(OC[C@@]34CCCN3C/C(=C\F)C4)nc3c1CO[C@H](c1c(F)c(N)cc(Cl)c1C(F)(F)F)C3)CCC2 [247a, 5-((S)-7-(3-amino-5-chloro-2-fluoro-6-(trifluoromethyl)phenyl)-2-(((S,Z)-2-(fluoromethylene)tetrahydro-1H-pyrrolizin-7a(5H)-yl)methoxy)-7,8-dihydro-5H-pyrano[4,3-d]pyrimidin-4-yl)-3-chloro-N,N-dimethyl-5,6,7,8-tetrahydro-4H-pyrazolo[1,5-a][1,4]diazepine-2-carboxamide] | – | – | IC50 [1]: < 10 nM |
| CN(C)C(=O)c1nn2c(c1Cl)CN(c1nc(OC[C@@]34CCCN3C/C(=C\F)C4)nc3c1CO[C@@H](c1c(F)c(N)cc(Cl)c1C(F)(F)F)C3)CCC2 [247b, 5-((R)-7-(3-amino-5-chloro-2-fluoro-6-(trifluoromethyl)phenyl)-2-(((S,Z)-2-(fluoromethylene)tetrahydro-1H-pyrrolizin-7a(5H)-yl)methoxy)-7,8-dihydro-5H-pyrano[4,3-d]pyrimidin-4-yl)-3-chloro-N,N-dimethyl-5,6,7,8-tetrahydro-4H-pyrazolo[1,5-a][1,4]diazepine-2-carboxamide] | > 500 | 615 | – |
| CN(C)C(=O)c1nn2c(c1Cl)CN(c1nc(OC[C@@]34CCCN3CC(=C(F)F)C4)nc3c1CO[C@H](c1c(F)c(N)cc(Cl)c1C(F)(F)F)C3)CCC2 [248a, 5-((S)-7-(3-amino-5-chloro-2-fluoro-6-(trifluoromethyl)phenyl)-2-(((S)-2-(difluoromethylene)tetrahydro-1H-pyrrolizin-7a(5H)-yl)methoxy)-7,8-dihydro-5H-pyrano[4,3-d]pyrimidin-4-yl)-3-chloro-N,N-dimethyl-5,6,7,8-tetrahydro-4H-pyrazolo[1,5-a][1,4]diazepine-2-carboxamide] | – | – | IC50 [1]: < 10 nM |
| CN(C)C(=O)c1nn2c(c1Cl)CN(c1nc(OC[C@@]34CCCN3CC(=C(F)F)C4)nc3c1CO[C@@H](c1c(F)c(N)cc(Cl)c1C(F)(F)F)C3)CCC2 [248b, 5-((R)-7-(3-amino-5-chloro-2-fluoro-6-(trifluoromethyl)phenyl)-2-(((S)-2-(difluoromethylene)tetrahydro-1H-pyrrolizin-7a(5H)-yl)methoxy)-7,8-dihydro-5H-pyrano[4,3-d]pyrimidin-4-yl)-3-chloro-N,N-dimethyl-5,6,7,8-tetrahydro-4H-pyrazolo[1,5-a][1,4]diazepine-2-carboxamide] | > 500 | > 2500 | – |
| [2H]C([2H])([2H])N(C(=O)c1nn2c(c1Cl)CN(c1nc(OC[C@@]34CCCN3C[C@H](F)C4)nc3c1CO[C@@H](c1c(F)c(N)cc(Cl)c1C(F)(F)F)C3)CCC2)C([2H])([2H])[2H] [250b] | 10 to 30 | – | – |
| CN1CCN(c2nc(OC[C@@]34CCCN3C[C@H](F)C4)nc3c2COC(c2c(C(F)(F)F)ccc(N)c2F)C3)CCC1=O (stereo partly shown) [compound 201] | > 500 | > 10000 | – |
| CN(C)C(=O)c1nc2c(s1)CCCN(c1nc(OC[C@@]34CCCN3C[C@H](F)C4)nc3c1CO[C@H](c1c(C(F)(F)F)ccc(N)c1F)C3)C2 [compound 202] | > 500 | > 10000 | – |
| Nc1ccc(C(F)(F)F)c(C2Cc3nc(OC[C@@]45CCCN4C[C@H](F)C5)nc(N4CCNCC(=O)C4)c3CO2)c1F (stereo partly shown) [compound 203] | > 500 | > 10000 | – |
| Nc1ccc(C(F)(F)F)c([C@@H]2Cc3nc(OC[C@@]45CCCN4C[C@H](F)C5)nc(N4CCCS(=O)(=O)CC4)c3CO2)c1F [compound 204] | > 500 | > 10000 | – |
| Nc1ccc(C(F)(F)F)c([C@@H]2Cc3nc(OC[C@@]45CCCN4C[C@H](F)C5)nc(N4CCNC(=O)CC4)c3CO2)c1F [compound 205] | > 500 | > 10000 | – |
| Nc1ccc(C(F)(F)F)c(C2Cc3nc(OC[C@@]45CCCN4C[C@H](F)C5)nc(N4CCCC(=O)CC4)c3CO2)c1F (stereo partly shown) [compound 206] | > 500 | > 10000 | – |
| Nc1ccc(C(F)(F)F)c(C2Cc3nc(OC[C@@]45CCCN4C[C@H](F)C5)nc(N4CCNC5CS(=O)(=O)C[C@H]54)c3CO2)c1F (stereo partly shown) [compound 207] | > 500 | > 10000 | – |
| CN(C)C(=O)c1nc2c(o1)CCCN(c1nc(OC[C@@]34CCCN3C[C@H](F)C4)nc3c1COC(c1c(C(F)(F)F)ccc(N)c1F)C3)C2 (stereo partly shown) [compound 208] | > 500 | 1440 | – |
| CN(C)C(=O)c1nc2c(s1)CN(c1nc(OC[C@@]34CCCN3C[C@H](F)C4)nc3c1CO[C@H](c1c(C(F)(F)F)ccc(N)c1F)C3)CCC2 [compound 209] | 101 to 500 | 479 | – |
| Nc1ccc(C(F)(F)F)c(C2Cc3nc(OC[C@@]45CCCN4C[C@H](F)C5)nc(N4CCNCC(=O)C4)c3CO2)c1F (stereo partly shown) [compound 210] | – | – | IC50 (AsPC-1, 4H, Table 1a class column, read-out: pERK IC50 activity range (*)): > 500 nM; IC50 (AsPC-1, 4H, Table 1a, read-out: PERK IC50 (AsPC-1, 4H)): > 10000 nM |
| CN(C)C(=O)c1nn2c(c1Cl)CN(c1nc(OC[C@@]34CCCN3C[C@H](F)C4)nc3c1COC(c1nc(N)ccc1C(F)(F)F)C3)CCC2 (stereo partly drawn) [compound 217, 5-(7-(6-amino-3-(trifluoromethyl)pyridin-2-yl)-2-(((2R,7aS)-2-fluorotetrahydro-1H-pyrrolizin-7a(5H)-yl)methoxy)-7,8-dihydro-5H-pyrano[4,3-d]pyrimidin-4-yl)-3-chloro-N,N-dimethyl-5,6,7,8-tetrahydro-4H-pyrazolo[1,5-a][1,4]diazepine-2-carboxamide] | 101 to 500 | 312 | – |

| Structure (SMILES) | IC50 [2] [nM] | IC50 [3] [nM] | other results |
| --- | --- | --- | --- |
| CN(C)C(=O)c1nn2c(c1Cl)CN(c1nc(OC[C@@]34CCCN3C[C@H](F)C4)nc3c1COC(c1c(C(F)(F)F)ccc(Br)c1F)C3)CC1(COC1)C2 (stereo partly shown) [compound 218] | > 500 | > 10000 | – |
| CN(C)C(=O)c1nn2c(c1Cl)CN(c1nc(OC[C@@]34CCCN3C[C@H](F)C4)nc3c1CO[C@H](c1c(C(F)(F)F)ccc(I)c1F)C3)CCC2 [compound 219] | > 500 | 896 | – |
| CN(C)C(=O)c1nn2c(c1Cl)CN(c1nc(OC[C@@]34CCCN3C[C@H](F)C4)nc3c1CO[C@H](c1c(C(F)(F)F)ccc(Br)c1F)C3)CCC2 [compound 220] | > 500 | 1040 | – |
| CN(C)C(=N)c1nn2c(c1Cl)CN(c1nc(OC[C@@]34CCCN3C[C@H](F)C4)nc3c1CO[C@H](c1c(C(F)(F)F)ccc(N)c1F)C3)CCC2 [compound 221] | > 500 | > 10000 | – |
| CN(C)C(=O)c1nn2c(c1Cl)CN(c1nc(OC[C@@]34CCCN3C[C@H](F)C4)nc3c1COC(c1c(C(F)(F)F)ccc(N)c1F)C3)CC1(COC1)C2 (stereo partly shown) [compound 222] | > 500 | > 10000 | – |
| CN(C)C(=S)c1nn2c(c1Cl)CN(c1nc(OC[C@@]34CCCN3C[C@H](F)C4)nc3c1CO[C@H](c1c(C(F)(F)F)ccc(N)c1F)C3)CCC2 [compound 223] | 101 to 500 | 147 | – |
| CN(C)C(=O)c1nn2c(c1Br)CN(c1nc(OC[C@@]34CCCN3C[C@H](F)C4)nc3c1CO[C@H](c1c(C(F)(F)F)ccc(N)c1F)C3)CCC2 [compound 224] | 10 to 30 | 22 | – |
| COCCN(C)C(=O)c1nn2c(c1Cl)CN(c1nc(OC[C@@]34CCCN3C[C@H](F)C4)nc3c1COC(c1c(C(F)(F)F)ccc(N)c1F)C3)CCC2 (stereo partly shown) [compound 225] | 31 to 100 | 82 | – |
| CN(C)C(=O)n1nc2c(c1Cl)CN(c1nc(OC[C@@]34CCCN3C[C@H](F)C4)nc3c1COC(c1c(C(F)(F)F)ccc(N)c1F)C3)CCC2 (stereo partly shown) [compound 226] | > 500 | 943 | – |
| Nc1ccc(C(F)(F)F)c(C2Cc3nc(OC[C@@]45CCCN4C[C@H](F)C5)nc(N4CCCn5nc(C(=O)N6CCOCC6)c(Cl)c5C4)c3CO2)c1F (stereo partly shown) [compound 227] | 31 to 100 | 97 | – |
| CN(C)C(=O)n1cc2c(n1)CCCN(c1nc(OC[C@@]34CCCN3C[C@H](F)C4)nc3c1COC(c1c(C(F)(F)F)ccc(N)c1F)C3)C2 (stereo partly shown) [compound 228] | > 500 | 3070 | – |
| Cn1cc2c(n1)CCCN(c1nc(OC[C@@]34CCCN3C[C@H](F)C4)nc3c1COC(c1c(C(F)(F)F)ccc(N)c1F)C3)C2 (stereo partly shown) [compound 229] | > 500 | > 10000 | – |
| CN(C)C(=O)c1nn2c(c1Cl)CN(c1nc(OC[C@@]34CCCN3C[C@H](F)C4)nc3c1COC(c1cc(N)ccc1C(F)(F)F)C3)CCC2 (stereo partly drawn) [compound 230, 5-(7-(5-amino-2-(trifluoromethyl)phenyl)-2-(((2R,7aS)-2-fluorotetrahydro-1H-pyrrolizin-7a(5H)-yl)methoxy)-7,8-dihydro-5H-pyrano[4,3-d]pyrimidin-4-yl)-3-chloro-N,N-dimethyl-5,6,7,8-tetrahydro-4H-pyrazolo[1,5-a][1,4]diazepine-2-carboxamide] | 31 to 100 | 37 | – |
| CN(C)C(=O)c1nn2c(c1Cl)CN(c1nc(OCC34CCCN3CC(=C(F)F)C4)nc3c1COC(c1c(C(F)(F)F)ccc(N)c1F)C3)CCC2 (stereo not shown) [compound 231] | 31 to 100 | 56 | – |
| CN(C(=O)c1nn2c(c1Cl)CN(c1nc(OC[C@@]34CCCN3C[C@H](F)C4)nc3c1COC(c1c(C(F)(F)F)ccc(N)c1F)C3)CCC2)C1CC1 (stereo partly drawn) [compound 232, 5-(7-(3-amino-2-fluoro-6-(trifluoromethyl)phenyl)-2-(((2R,7aS)-2-fluorotetrahydro-1H-pyrrolizin-7a(5H)-yl)methoxy)-7,8-dihydro-5H-pyrano[4,3-d]pyrimidin-4-yl)-3-chloro-N-cyclopropyl-N-methyl-5,6,7,8-tetrahydro-4H-pyrazolo[1,5-a][1,4]diazepine-2-carboxamide] | 101 to 500 | 247 | IC50 (Homo sapiens, ASPC1, AsPC-1, 4H, individual (R) diastereomer of Ex. 232, read-out: PERK IC50 (AsPC-1, 4H) nM, individual diastereomer (R)): > 1000 nM; IC50 (Homo sapiens, ASPC1, AsPC-1, 4H, individual (S) diastereomer of Ex. 232, read-out: PERK IC50 (AsPC-1, 4H) nM, individual diastereomer (S)): 166 nM |
